{
  "source": "patent US20110301202A1",
  "about": "“SPLA2 INHIBITOR CONJUGATE COMPOUNDS AND METHODS OF USE” (priority 2010, published 2011)",
  "origin": "cited, not measured here",
  "key": {"[1]": {"conditions": "following administration"}, "[2]": {"conditions": "once- or twice-daily, stable CVD population, also diabetic and high baseline LDL-C subpopulations"}},
  "data": [
    {"smiles": "CCc1c(C(=O)C(N)=O)c2c(OCC(=O)OC)cccc2n1Cc1ccccc1", "note": "[A-002, [[3-(2-Amino-1,2-dioxoethyl)-2-ethyl-1-(phenylmethyl)-1H-indol-4-yl]oxy]acetic acid methyl ester]", "values": [
      {"measurement": "lipid levels", "setting": "humans", "value": "decreases"},
      {"measurement": "LDL-C", "setting": "[2]", "value": "decreases"},
      {"measurement": "inflammatory marker levels", "setting": "[2]", "value": "decreases"},
      {"measurement": "small LDL-C particle levels", "setting": "[2]", "value": "decreases"},
      {"measurement": "total LDL-C particle levels", "setting": "[2]", "value": "decreases"},
      {"measurement": "total cholesterol", "setting": "[2]", "value": "decreases"},
      {"measurement": "absorption and hydrolysis of prodrug to A-001", "setting": "[1]", "value": "rapidly absorbed and hydrolyzed to A-001"}
    ]}
  ]
}
